Assays:
RIPK1 kinase [1] = molecular target: T1, RIPK1 kinase (Homo sapiens, UniProt Q13546); experiment: In vitro RIPK1 kinase activity IC50 assay (ADP-Glo); assay type: biochemical; details: ATP 10 μM; MBP substrate 100 μg/mL; 8 concentration points; read-out: IC50 range of compounds for RIPK1 kinase activity
T1 construct: purchased Promega VA7593
T1 sequence (Q13546 1-671): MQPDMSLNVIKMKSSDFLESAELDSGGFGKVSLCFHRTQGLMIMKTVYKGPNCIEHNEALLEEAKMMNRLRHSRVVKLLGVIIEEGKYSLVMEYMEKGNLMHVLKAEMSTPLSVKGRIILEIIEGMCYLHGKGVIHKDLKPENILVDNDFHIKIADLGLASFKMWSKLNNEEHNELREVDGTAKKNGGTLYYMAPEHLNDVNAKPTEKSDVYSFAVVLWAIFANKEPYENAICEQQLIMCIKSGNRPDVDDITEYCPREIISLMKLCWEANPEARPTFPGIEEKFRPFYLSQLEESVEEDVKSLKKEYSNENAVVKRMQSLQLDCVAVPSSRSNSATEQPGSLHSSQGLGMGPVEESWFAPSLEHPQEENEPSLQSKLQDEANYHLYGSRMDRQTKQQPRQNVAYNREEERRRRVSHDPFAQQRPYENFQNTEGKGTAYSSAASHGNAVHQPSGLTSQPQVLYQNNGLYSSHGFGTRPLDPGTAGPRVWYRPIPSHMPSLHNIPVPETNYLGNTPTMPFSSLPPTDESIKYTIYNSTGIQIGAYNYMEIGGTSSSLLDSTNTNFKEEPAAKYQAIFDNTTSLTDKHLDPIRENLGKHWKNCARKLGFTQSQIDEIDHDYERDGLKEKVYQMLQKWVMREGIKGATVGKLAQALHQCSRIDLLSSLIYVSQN
Method: RIPK1 kinase activity was assayed using the ADP-Glo assay and RIPK1 kinase reaction system (Promega, catalog number: VA7593). The RIPK1 kinase activity assay was performed according to the Promega kit manual.
The experimental method was briefly described as below. The concentration of RIPK1 kinase in the RIPK1 kinase reaction system was determined by kinase titration and S/B10. The compound was diluted with 1× kinase buffer D (1% DMSO), 1 μL of 1 mM compound DMSO stock solution was added to 19 μL 1× kinase buffer D, and the compound was serially diluted with 1× kinase buffer D at a ratio of 1:5, for a total of 8 concentration points, and a control with the same DMSO volume was set. RIPK1 kinase was diluted with 1× kinase buffer D. 2.5×ATP/substrate was diluted with 1× kinase buffer D. The final concentration of ATP in the kinase reaction system was 10 μM. The final concentration of MBP substrate was 100 μg/mL. 1 μL of diluted compound and 2 μL of diluted RIPK1 kinase were mixed, incubated at room temperature for 15 minutes, 2 μL of 2.5×ATP/substrate was added, mixed, and incubated at room temperature for 1 hour. 5 μL ADP-Glo reagent was added to each well and incubated at room temperature for 1 hour. 10 μL ADP detection reagent was added to each well and incubated at room temperature for another 0.5-1 hour. The chemiluminescent signal was read with a microplate reader and the kinase activity inhibition rate was calculated. IC50 was obtained by fitting the nonlinear regression curve log [inhibitor] vs. response-variable slope (four parameters) in GraphPad Prism.

U937 cells [2] = experiment: Inhibition rate of compound (1 μM) on necroptosis of U937 cells (TSZ-induced, CellTiter-Glo); assay type: cell-based; details: TSZ (hTNF-α, SM-164, Z-VAD-FMK) 20 hours
Procedure, shortened: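 U937 cells were pretreated 15 min with compound, then necroptosis was triggered with TSZ (Z-VAD-FMK, hTNF-α, SM-164) for 20 h at 37° C. Viability was read as ATP by CellTiter-Glo luminescence, and inhibition (%) was taken relative to no-TSZ and TSZ-only wells.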

U937 cells [3] = experiment: EC50 of necroptosis inhibition in U937 cells (TSZ-induced, CellTiter-Glo); assay type: cell-based; details: Homo sapiens, U-937; TSZ (hTNF-α, SM-164, Z-VAD-FMK) 20 hours; 10 concentration points; read-out: EC50 intervals of necroptosis inhibition in U937 cells
Procedure, shortened: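 U937 cells pretreated 15 min with compound (10-point, 1:3 series), then necroptosis induced by TSZ (hTNF-α, SM-164, Z-VAD-FMK) for 20 h at 37 °C. Viability measured as ATP by CellTiter-Glo luminescence; inhibition normalised to untreated and TSZ-only wells, EC50 from four-parameter fit.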

RIPK1 kinase [4] = molecular target: T1, RIPK1 kinase; experiment: In vitro RIPK1 kinase activity assay (ADP-Glo), inhibition by compounds at 1 μM; assay type: biochemical; details: compound 1 μM; ATP 10 μM; MBP substrate 100 μg/mL; read-out: RIPK1 kinase activity inhibition rate range
Procedure, shortened: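 Compound and RIPK1 were preincubated 15 min at room temperature, then reacted 1 h with 10 μM ATP and 100 μg/mL MBP substrate in kinase buffer D. ADP formed was measured by ADP-Glo luminescence and converted to percent inhibition of kinase activity.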

IC50 (RIPK1 kinase [1])	inhibition at 1 µM (RIPK1 kinase [4])	Compound	Inhibition rate range of compounds (1 μM) on U937 cell necroptosis (U937 cells [2])	EC50 (U937 cells [3])
< 100 nM		C[C@@H](NC(=O)C(=O)N[C@H]1COc2ccc(C#CCCO)cc2N(C)C1=O)c1ccccc1 [Example 125, N^1-((S)-7-(4-hydroxybut-1-yn-1-yl)-5-methyl-4-oxo-2,3,4,5-tetrahydrobenzo[b][1,4]oxazepin-3-yl)-N^2-((R)-1-phenylethyl)oxalamide]	A (A: ≥90%)	< 100 nM
	50 to 74%	C[C@H](Cc1ccccc1)NC(=O)C(=O)N[C@H]1COc2ccc(C#CCCO)cc2N(C)C1=O [Example 153, N^1-((S)-7-(4-hydroxybut-1-yn-1-yl)-5-methyl-4-oxo-2,3,4,5-tetrahydrobenzo[b][1,4]oxazepin-3-yl)-N^2-((R)-1-phenylpropan-2-yl)oxalamide]	A (A: ≥90%)	100 to 500 nM
	≥ 75%	CN1C(=O)[C@@H](NC(=O)C(=O)NC(C)(C)c2ccccc2)COc2ccc(C#CCN3CCOCC3)cc21 [Example 160, (S)—N^1-(5-methyl-7-(3-morpholinoprop-1-yn-1-yl)-4-oxo-2,3,4,5-tetrahydrobenzo[b][1,4]oxazepin-3-yl)-N^2-(2-phenylpropan-2-yl)oxalamide]	A (A: ≥90%)	< 100 nM
	50 to 74%	C[C@@H](NC(=O)C(=O)N[C@H]1COc2ccc(C#CC[N+]3([O-])CCOCC3)cc2N(C)C1=O)c1ccccc1 [Example 161, 4-(3-((S)-5-methyl-4-oxo-3-(2-oxo-2-(((R)-1-phenylethyl)amino)acetamido)-2,3,4,5-tetrahydrobenzo[b][1,4]oxazepin-7-yl)prop-2-yn-1-yl) morpholine 4-oxide]	A (A: ≥90%)	< 100 nM
	≥ 75%	Cc1ncsc1-c1ccc(CNC(=O)[C@@H]2C[C@@H](O)CN2C(=O)[C@@H](NC(=O)COCCOCCN2CCN(CC#Cc3ccc4c(c3)N(C)C(=O)[C@@H](NC(=O)C(=O)N[C@H](C)c3ccccc3)CO4)CC2)C(C)(C)C)cc1 [Example 162, N^1-((S)-7-(3-(4-(2-(2-(2-(((S)-1-((2S,4R)-4-hydroxy-2-((4-(4-methylthiazol-5-yl)benzyl)carbamoyl)pyrrolidin-1-yl)-3,3-dimethyl-1-oxobutan-2-yl)amino)-2-oxoethoxy)ethoxy)ethyl)piperazin-1-yl)prop-1-yn-1-yl)-5-methyl-4-oxo-2,3,4,5-tetrahydrobenzo[b][1,4]oxazepin-3-yl)-N^2-((R)-1-phenylethyl)oxalamide]	A (A: ≥90%)	100 to 500 nM
	≥ 75%	Cc1ncsc1-c1ccc(CNC(=O)[C@@H]2C[C@@H](O)CN2C(=O)[C@@H](NC(=O)CCOCCOCCOCCN2CCN(CC#Cc3ccc4c(c3)N(C)C(=O)[C@@H](NC(=O)C(=O)N[C@H](C)c3ccccc3)CO4)CC2)C(C)(C)C)cc1 [Example 163, N^1-((S)-7-(3-(4-((S)-14-((2S,4R)-4-hydroxy-2-((4-(4-methylthiazol-5-yl)benzyl)carbamoyl)pyrrolidine-1-carbonyl)-15,15-dimethyl-12-oxo-3,6,9-trioxa-13-azahexadecyl)piperazin-1-yl)prop-1-yn-1-yl)-5-methyl-4-oxo-2,3,4,5-tetrahydrobenzo[b][1,4]oxazepin-3-yl)-N^2-((R)-1-phenylethyl)oxalamide]	A (A: ≥90%)	< 100 nM
	25 to 49%	C[C@@H](NC(=O)C(=O)N[C@H]1CN(C)c2ccc(C#CCN3CCOCC3)cc2N(C)C1=O)c1ccccc1 [Example 166, N^1-((S)-1,5-dimethyl-8-(3-morpholinoprop-1-yn-1-yl)-2-oxo-2,3,4,5-tetrahydro-1H-benzo[b][1,4]diazepin-3-yl)-N^2-((R)-1-phenylethyl)oxalamide]	A (A: ≥90%)	< 100 nM

Reference: patent US20250368633A1, “AZEPINE FUSED RING COMPOUND AS RIPK1 INHIBITOR AND USE THEREOF” (ARTIVILA BIOPHARMA, priority 2022, published 2025)
